Where two headings read alike, the source gives them in different places.
Experiments:
HeLa cells = assay: [3H] Adenosine uptake assay; format: cell-based; settings: accumulation of tritiated adenosine into HeLa cells, compound concentration range 10 μM to 0.032 nM, read-out: ADU inhibition IC50 (adenosine uptake inhibition potency)
Procedure, shortened: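 HeLa cells in HBSS + 5% FBS preincubated 30 min at ambient temperature with compound (0.25% DMSO), then [3H]adenosine (500 nM stock) added for 60 min. Uptake measured by scintillation proximity counting; IC50 from 4-parameter fit of counts vs log concentration.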

[1] = target: BTK enzyme (recombinant full-length BTK, hBTK) (Homo sapiens (Human), UniProt Q06187); assay: Btk enzyme activity assay, LANCE TR-FRET; format: biochemical; settings: 50 pM hBTK, 2 μM biotin-A5-peptide, 25 μM ATP; 60 minute compound & enzyme incubation; read-out: BTK binding IC50
Protocol: Btk Enzyme Activity Assay Methods
BTK enzymatic activity was determined with the LANCE (Lanthanide Chelate Excite) TR-FRET (Time-resolved fluorescence resonance energy transfer) assay. […] After 60 minutes incubation with detection reagents, reaction plates were read on a PerkinElmer EnVision plate reader using standard TR-FRET protocol.

Sequence of BTK enzyme (recombinant full-length BTK, hBTK) (Q06187 whole entry): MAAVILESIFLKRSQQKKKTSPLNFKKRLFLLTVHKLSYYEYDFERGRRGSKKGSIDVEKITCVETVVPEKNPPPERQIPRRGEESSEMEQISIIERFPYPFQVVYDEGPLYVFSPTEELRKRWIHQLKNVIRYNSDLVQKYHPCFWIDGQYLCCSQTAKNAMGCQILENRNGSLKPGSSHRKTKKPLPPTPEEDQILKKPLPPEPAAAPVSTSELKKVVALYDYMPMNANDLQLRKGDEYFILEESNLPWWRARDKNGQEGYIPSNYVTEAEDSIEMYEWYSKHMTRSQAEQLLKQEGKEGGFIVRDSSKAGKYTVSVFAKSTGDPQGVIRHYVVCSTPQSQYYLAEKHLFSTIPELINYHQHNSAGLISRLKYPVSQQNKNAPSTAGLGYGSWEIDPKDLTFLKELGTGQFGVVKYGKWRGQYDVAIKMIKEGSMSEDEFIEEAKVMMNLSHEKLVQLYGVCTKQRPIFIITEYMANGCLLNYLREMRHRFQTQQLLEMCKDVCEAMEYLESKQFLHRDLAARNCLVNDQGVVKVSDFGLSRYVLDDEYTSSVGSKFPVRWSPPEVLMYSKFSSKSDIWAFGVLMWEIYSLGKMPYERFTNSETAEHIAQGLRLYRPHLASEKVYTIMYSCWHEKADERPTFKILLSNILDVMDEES

| IC50 (HeLa cells; Homo sapiens, HeLa) | IC50 [1] | IC50 (HeLa cells) | Compound |
| --- | --- | --- | --- |
| 9380 nM | 1.6 nM |  | CCOc1cc(C(=O)Nc2cc(C(F)(F)F)ccn2)c(F)cc1-c1nc([C@@]2(C)CC[C@](C)(C(=O)O)C2)n2ccnc(N)c12 [Example 128, (1S,3S)-3-[8-amino-1-(2-ethoxy-5-fluoro-4-{[4-(trifluoromethyl)pyridin-2-yl]carbamoyl}phenyl)imidazo[1,5-a]pyrazin-3-yl]-1,3-dimethylcyclopentane carboxylic acid] |
| 3660 nM | 0.9 nM |  | C[C@@]1(C(=O)O)CCC[C@@](C)(c2nc(-c3ccc(C(=O)Nc4cc(C(F)(F)F)ccn4)cc3)c3c(N)nccn23)C1 [Example 137, (1R,3R)-3-[8-amino-1-(4-{[4-(trifluoromethyl)pyridin-2-yl]carbamoyl}phenyl)imidazo[1,5-a]pyrazin-3-yl]-1,3-dimethylcyclohexane-carboxylic acid] |
| 2340 nM | 1.8 nM |  | COc1cc(C(=O)Nc2cc(C(F)(F)F)ccn2)ccc1-c1nc([C@H]2CN(C3CCC(C)(C(=O)O)CC3)[C@@H](C)CO2)n2ccnc(N)c12 (stereo partly drawn) [Example 181, 4-{(2R,5S)-2-[8-amino-1-(2-methoxy-4-{[4-(trifluoromethyl)pyridin-2-yl]carbamoyl}phenyl)imidazo [1,5-a]pyrazin-3-yl]-5-methylmorpholin-4-yl}-1-methylcyclohexanecarboxylic acid] |
| 1700 nM | 0.27 nM |  | CC1(C(=O)O)CCC(C)(c2nc(-c3ccc(C(=O)Nc4cc(C(F)(F)F)ccn4)cc3)c3c(N)nccn23)C1 (stereo not drawn) [Example 21, 3-(8-amino-1-(4-((4-(trifluoromethyl)pyridin-2-yl)carbamoyl)phenyl)imidazo[1,5-a]pyrazin-3-yl)-1,3-dimethylcyclopentanecarboxylic acid] |
| 4060 nM | 1.7 nM |  | C[C@H]1CO[C@@H](c2nc(-c3ccc(C(=O)Nc4cc(C(F)(F)F)ccn4)cc3F)c3c(N)ncc(Cl)n23)CN1[C@H]1CC[C@@](C)(C(=O)O)CC1 [Example 201, cis-4-{(2R,5S)-2-[8-amino-5-chloro-1-(2-fluoro-4-{[4-(trifluoromethyl)pyridin-2-yl]carbamoyl}phenyl)imidazo [1,5-a]pyrazin-3-yl]-5-methylmorpholin-4-yl}-1-methylcyclohexanecarboxylic acid] |
| 4750 nM | 2.1 nM |  | CCOc1cc(C(=O)Nc2cc(C(F)(F)F)ccn2)ccc1-c1nc([C@H]2CC[C@](C(=O)O)(C(C)C)C2)n2c(Cl)cnc(N)c12 [Example 110, (1R,3S)-3-[8-amino-5-chloro-1-(2-ethoxy-4-{[4-(trifluoromethyl)pyridin-2-yl]carbamoyl}phenyl)imidazo[1,5-a]pyrazin-3-yl]-1-(1-methylethyl) cyclopentane-carboxylic acid] |
| 1320 nM | 0.49 nM |  | CC1(C(=O)O)CCC(N2CCO[C@@H](c3nc(-c4ccc(C(=O)Nc5cc(C(F)(F)F)ccn5)cc4)c4c(N)nccn34)C2)CC1 (stereo partly drawn) [Example 176, (R)-4-(2-(8-amino-1-(4-((4-(trifluoromethyl)pyridin-2-yl)carbamoyl)phenyl)imidazo[1,5-a]pyrazin-3-yl)morpholino)-1-methylcyclohexanecarboxylic acid] |
| 2020 nM | 5.9 nM |  | Cc1cnc(N)c2c(-c3ccc(C(=O)Nc4ccccn4)cc3)nc([C@H]3CN([C@H]4CC[C@](C)(C(=O)O)CC4)CCO3)n12 [Example 199, trans-4-[(2R)-2-{8-amino-5-methyl-1-[4-(pyridin-2-ylcarbamoyl)phenyl]imidazo [1,5-a]pyrazin-3-yl}morpholin-4-yl]-1-methylcyclohexanecarboxylic acid] |
| 6760 nM | 1.9 nM |  | CC1(C(=O)O)CCC(c2nc(-c3ccc(C(=O)Nc4cc(C(F)(F)F)ccn4)cc3F)c3c(N)ncc(Cl)n23)CC1 (stereo not drawn) [Example 163, 4-[8-amino-5-chloro-1-(2-fluoro-4-{[4-(trifluoromethyl)pyridin-2-yl]carbamoyl}phenyl)imidazo[1,5-a]pyrazin-3-yl]-1-methylcyclohexane-carboxylic acid] |
| 7320 nM | 0.37 nM |  | CCOc1cc(C(=O)Nc2cc(C3CC3)ccn2)cc(F)c1-c1nc([C@@H]2CC[C@](C)(C(=O)O)C2(C)C)n2ccnc(N)c12 [Example 121, (1S,3R)-3-(8-amino-1-{4-[(4-cyclopropylpyridin-2-yl)carbamoyl]-2-ethoxy-6-fluorophenyl}imidazo [1,5-a]pyrazin-3-yl)-1,2,2-trimethylcyclopentane carboxylic acid] |
| 10000 nM | 2 nM |  | CCOc1cc(C(=O)Nc2cc(C(F)(F)F)ccn2)ccc1-c1nc([C@H]2CC[C@@H](C(C)C)[C@@H](C(=O)O)C2)n2ccnc(N)c12 [Example 101, (1S,2S,5S)-5-[8-amino-1-(2-ethoxy-4-{[4-(trifluoromethyl)pyridin-2-yl]carbamoyl}phenyl)imidazo[1,5-a]pyrazin-3-yl]-2-(1-methylethyl) cyclohexane-carboxylic acid] |
| 3870 nM | 3.8 nM |  | C[C@]1(C(=O)O)CC[C@H](N2CCO[C@@H](c3nc(-c4ccc(C(=O)Nc5ccccn5)cc4)c4c(N)ncc(Cl)n34)C2)CC1 [Example 204, trans-4-[(2R)-2-{8-amino-5-chloro-1-[4-(pyridin-2-ylcarbamoyl)phenyl]imidazo [1,5-a]pyrazin-3-yl}morpholin-4-yl]-1-methylcyclohexanecarboxylic acid] |
| 7350 nM | 0.45 nM |  | CCOc1cc(C(=O)Nc2cc(C(F)(F)F)ccn2)ccc1-c1nc([C@@H]2CC[C@](C)(C(=O)O)C2(C)C)n2ccnc(N)c12 [Example 84, (1S,3R)-3-[8-amino-1-(2-ethoxy-4-{[4-(trifluoromethyl)pyridin-2-yl]carbamoyl}phenyl)imidazo[1,5-a]pyrazin-3-yl]-1,2,2-trimethylcyclopentane carboxylic acid] |
| 1880 nM | 0.52 nM |  | CCOc1cc(C(=O)Nc2cc(C(F)(F)F)ccn2)ccc1-c1nc(C23CCC(C(=O)O)(CC2)C3)n2ccnc(N)c12 [Example 103, 4-[8-amino-1-(2-ethoxy-4-{[4-(trifluoromethyl)pyridin-2-yl]carbamoyl}phenyl)imidazo[1,5-a]pyrazin-3-yl]bicyclo[2.2.1] heptane-1-carboxylic acid] |
| 4400 nM | 1.2 nM |  | Nc1nccn2c([C@@H]3CCC[C@H](C(=O)O)C3)nc(-c3ccc(C(=O)Nc4cc(C5CC5)ccn4)cc3F)c12 [Example 9, (1S,3R)-3-(8-amino-1-{4-[(4-cyclopropyl-pyridin-2-yl)carbamoyl]-2-fluorophenyl}imidazo[1,5-a]pyrazin-3-yl)cyclohexane-carboxylic acid] |
| 10000 nM | 27.6 nM |  | CCOc1cc(C(=O)Nc2cc(C(F)(F)F)n(C)n2)ccc1-c1nc([C@H]2CC[C@](C(=O)O)(C(C)C)C2)n2ccnc(N)c12 [Example 58, (1R,3S)-3-[8-amino-1-(2-ethoxy-4-{[1-methyl-5-(trifluoromethyl)-1H-pyrazol-3-yl]carbamoyl}phenyl)imidazo[1,5-a]pyrazin-3-yl]-1-(1-methylethyl) cyclopentane-carboxylic acid] |
| 10000 nM | 0.52 nM |  | Nc1nccn2c([C@@H]3CC[C@H]4[C@H](C(=O)O)[C@H]43)nc(-c3ccc(C(=O)Nc4cc(C(F)(F)F)ccn4)cc3)c12 [Example 56, (1R,2R,5R,6S)-2-[8-amino-1-(4-{[4-(trifluoromethyl)pyridin-2-yl]carbamoyl}phenyl)imidazo[1,5-a]pyrazin-3-yl]bicyclo[3.1.0]hexane-6-carboxylic acid] |
| 3160 nM | 0.76 nM |  | C[C@H]1CO[C@@H](c2nc(-c3ccc(C(=O)Nc4cc(C5CC5)ccn4)cc3F)c3c(N)ncc(Cl)n23)CN1[C@H]1CC[C@](C)(C(=O)O)CC1 [Example 209, trans-4-[(2R,5S)-2-(8-amino-5-chloro-1-{4-[(4-cyclopropylpyridin-2-yl)carbamoyl]-2-fluorophenyl}imidazo[1,5-a]pyrazin-3-yl)-5-methylmorpholin-4-yl]-1-methylcyclohexanecarboxylic acid] |
| 4720 nM | 0.54 nM |  | CCOc1cc(C(=O)Nc2cc(C(F)(F)F)ccn2)ccc1-c1nc(C23CCC(C(=O)O)(CC2)C2CC23)n2ccnc(N)c12 (stereo not drawn) [Example 100, 5-[8-amino-1-(2-ethoxy-4-{[4-(trifluoromethyl)pyridin-2-yl]carbamoyl}phenyl)imidazo[1,5-a]pyrazin-3-yl]tricyclo[3.2.2.0~2,4~] nonane-1-carboxylic acid] |
| 10000 nM | 0.18 nM |  | Nc1nccn2c([C@@H]3CC[C@H](CC(=O)O)C3)nc(-c3ccc(C(=O)Nc4cc(C(F)(F)F)ccn4)cc3)c12 [Example 54, {(1S,3R)-3-[8-amino-1-(4-{[4-(trifluoromethyl)pyridin-2-yl]carbamoyl}phenyl)imidazo[1,5-a]pyrazin-3-yl]cyclopentyl}acetic acid] |
|  | 2.5 nM | 3010 nM | CC(C)C1(C(=O)O)CCC(C)(c2nc(-c3ccc(C(=O)Nc4cc(C(F)(F)F)ccn4)cc3)c3c(N)nccn23)C1 (stereo not drawn) [Example 144, 3-[8-amino-1-(4-{[4-(trifluoromethyl)pyridin-2-yl]carbamoyl}phenyl)imidazo[1,5-a]pyrazin-3-yl]-3-methyl-1-(1-methylethyl) cyclopentane-carboxylic acid] |
